Assay results reported in patent US20250034216A1, “STEREOSELECTIVE COVALENT LIGANDS FOR ONCOGENIC AND IMMUNOLOGICAL PROTEINS” (The Scripps Research Institute, priority 2021, published 2025).

Assays:
Assay in all cases: IA-DTB cysteine engagement
Type in all cases: binding
[1] = molecular target: T1, CYP27B1_C163 (Homo sapiens, UniProt O15528); conditions: 22Rv1 cells, 20 μM probe, 1 h, relative to DMSO
T1 construct: endogenous in cells; host or cells: 22Rv1
T1 sequence (O15528 1-508): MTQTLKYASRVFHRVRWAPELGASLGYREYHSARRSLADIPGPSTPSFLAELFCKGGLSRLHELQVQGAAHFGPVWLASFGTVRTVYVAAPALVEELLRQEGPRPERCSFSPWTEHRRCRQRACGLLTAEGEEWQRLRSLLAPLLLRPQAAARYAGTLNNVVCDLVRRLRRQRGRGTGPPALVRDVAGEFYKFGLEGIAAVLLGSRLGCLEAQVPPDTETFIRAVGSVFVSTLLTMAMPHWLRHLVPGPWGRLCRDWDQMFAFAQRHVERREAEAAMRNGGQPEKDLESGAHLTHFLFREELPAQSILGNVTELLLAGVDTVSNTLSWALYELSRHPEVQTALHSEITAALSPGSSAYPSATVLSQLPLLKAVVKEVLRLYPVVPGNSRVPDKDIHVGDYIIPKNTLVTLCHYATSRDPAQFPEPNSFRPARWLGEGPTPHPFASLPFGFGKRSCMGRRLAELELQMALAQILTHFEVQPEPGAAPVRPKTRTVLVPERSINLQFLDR
How it was run: (§1)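 In-situ probe treatment of cells; lysate 2 mg/mL, IA-DTB 1 h RT; MeOH/CHCl3 precipitation, DTT/iodoacetamide, trypsin; streptavidin enrichment; TMT labeling, high-pH fractionation. Ratio = TMT reporter intensity / mean DMSO channels, median-normalized.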

[2] = molecular target: T2, NUDT16L1_C88 (Homo sapiens, UniProt Q9BRJ7); conditions: 22Rv1 cells, relative to DMSO; for % engagement NUDT16L1_C88: 20 μM probe, 1 h; for % engagement NUDT16L1_88: 5 μM probe, 1 h (FIG. 5B)
T2 construct: endogenous in cells; host or cells: 22Rv1
How it was run: as §1

[3] = molecular target: T3, HARS2_C175 (Homo sapiens, UniProt P49590); conditions: 22Rv1 cells, 20 μM probe, 1 h, relative to DMSO
T3 construct: endogenous in cells; host or cells: 22Rv1
T3 sequence (P49590 34-506): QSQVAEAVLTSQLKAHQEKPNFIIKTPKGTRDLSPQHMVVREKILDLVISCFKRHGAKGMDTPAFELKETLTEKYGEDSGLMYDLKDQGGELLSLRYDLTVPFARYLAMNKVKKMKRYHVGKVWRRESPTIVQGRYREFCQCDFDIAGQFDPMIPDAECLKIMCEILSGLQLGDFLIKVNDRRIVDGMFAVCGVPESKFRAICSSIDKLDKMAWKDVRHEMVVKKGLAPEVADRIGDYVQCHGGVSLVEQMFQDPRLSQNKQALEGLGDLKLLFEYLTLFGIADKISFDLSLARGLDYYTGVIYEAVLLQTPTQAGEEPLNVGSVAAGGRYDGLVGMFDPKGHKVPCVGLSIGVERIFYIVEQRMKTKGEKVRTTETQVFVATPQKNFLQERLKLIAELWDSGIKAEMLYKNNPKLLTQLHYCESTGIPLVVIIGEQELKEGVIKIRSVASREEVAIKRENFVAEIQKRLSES
How it was run: as §1

[4] = molecular target: T4, FABP5_C127 (Homo sapiens, UniProt Q01469); conditions: 22Rv1 cells, 20 μM probe, 1 h, relative to DMSO
T4 construct: endogenous in cells; host or cells: 22Rv1
How it was run: as §1

[5] = molecular target: T5, ANKRD46_C61 (Homo sapiens, UniProt Q86W74); conditions: 22Rv1 cells, 20 μM probe, 1 h, relative to DMSO
T5 construct: endogenous in cells; host or cells: 22Rv1
T5 sequence (Q86W74 1-228): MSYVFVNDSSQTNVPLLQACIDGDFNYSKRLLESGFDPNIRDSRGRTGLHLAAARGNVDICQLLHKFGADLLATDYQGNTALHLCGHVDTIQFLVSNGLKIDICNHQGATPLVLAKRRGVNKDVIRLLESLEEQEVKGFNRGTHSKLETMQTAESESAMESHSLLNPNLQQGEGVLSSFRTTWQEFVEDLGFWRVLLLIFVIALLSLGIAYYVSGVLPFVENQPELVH
How it was run: as §1

[6] = molecular target: T6, HIRA_C673 (Homo sapiens, UniProt P54198); conditions: 22Rv1 cells, 20 μM probe, 1 h, relative to DMSO
T6 construct: endogenous in cells; host or cells: 22Rv1
How it was run: as §1

T4 sequence (Q01469 whole entry): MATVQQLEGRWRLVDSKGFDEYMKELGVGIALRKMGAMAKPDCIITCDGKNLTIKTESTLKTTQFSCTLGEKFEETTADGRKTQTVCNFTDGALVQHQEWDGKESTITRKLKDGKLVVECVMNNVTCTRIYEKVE
T6 sequence (P54198 whole entry): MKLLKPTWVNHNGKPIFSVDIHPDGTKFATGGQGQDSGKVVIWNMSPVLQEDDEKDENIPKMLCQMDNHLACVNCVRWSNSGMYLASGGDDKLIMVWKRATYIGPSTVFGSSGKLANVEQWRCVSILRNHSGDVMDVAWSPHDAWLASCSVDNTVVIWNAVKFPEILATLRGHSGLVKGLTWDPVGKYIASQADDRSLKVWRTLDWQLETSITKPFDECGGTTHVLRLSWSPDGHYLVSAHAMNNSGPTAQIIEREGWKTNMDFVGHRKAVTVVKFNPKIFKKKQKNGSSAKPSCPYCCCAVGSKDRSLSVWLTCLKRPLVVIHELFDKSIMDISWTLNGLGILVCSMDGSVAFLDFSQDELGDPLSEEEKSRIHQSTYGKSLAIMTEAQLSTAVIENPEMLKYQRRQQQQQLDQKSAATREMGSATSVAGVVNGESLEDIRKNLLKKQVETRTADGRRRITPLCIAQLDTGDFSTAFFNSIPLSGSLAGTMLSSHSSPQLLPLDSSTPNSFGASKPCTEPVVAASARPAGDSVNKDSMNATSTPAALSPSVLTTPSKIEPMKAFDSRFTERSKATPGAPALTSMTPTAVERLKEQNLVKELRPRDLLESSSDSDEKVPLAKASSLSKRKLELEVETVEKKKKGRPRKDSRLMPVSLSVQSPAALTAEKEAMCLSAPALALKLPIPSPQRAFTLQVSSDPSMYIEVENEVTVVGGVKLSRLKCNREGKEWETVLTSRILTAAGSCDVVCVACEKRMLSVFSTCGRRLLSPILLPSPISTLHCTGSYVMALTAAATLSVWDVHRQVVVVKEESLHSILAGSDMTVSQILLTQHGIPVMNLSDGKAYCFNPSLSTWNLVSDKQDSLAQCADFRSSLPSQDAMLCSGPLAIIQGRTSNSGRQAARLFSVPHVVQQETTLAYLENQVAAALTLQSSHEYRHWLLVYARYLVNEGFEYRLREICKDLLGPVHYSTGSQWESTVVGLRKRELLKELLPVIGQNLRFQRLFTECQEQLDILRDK
T2 sequence (Q9BRJ7 whole entry): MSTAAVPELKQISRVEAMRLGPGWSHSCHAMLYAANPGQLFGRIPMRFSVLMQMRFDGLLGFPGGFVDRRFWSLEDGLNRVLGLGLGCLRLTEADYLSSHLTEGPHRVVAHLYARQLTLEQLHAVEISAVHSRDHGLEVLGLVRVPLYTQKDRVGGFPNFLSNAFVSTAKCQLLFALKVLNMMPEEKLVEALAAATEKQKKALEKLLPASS

| Compound | % engagement CYP27B1_C163 [1] | % engagement NUDT16L1_C88 [2] | % engagement HARS2_C175 [3] | % engagement FABP5_C127 [4] | % engagement ANKRD46_C61 [5] | % engagement HIRA_C673 [6] | % engagement NUDT16L1_88 [2] |
| --- | --- | --- | --- | --- | --- | --- | --- |
| C=CC(=O)N1C[C@@H](c2ccc(Br)cc2)[C@H]1C(=O)Nc1cccc2cccnc12 [MY-1A, (2S,3R)-1-acryloyl-3-(4-bromophenyl)-N-(quinolin-8-yl)azetidine-2-carboxamide] | 73% | 33.25% | 100% | 0% | 17.5% | −12% | – |
| C=CC(=O)N1C[C@H](c2ccc(Br)cc2)[C@@H]1C(=O)Nc1cccc2cccnc12 [MY-1B, (2R,3S)-1-acryloyl-3-(4-bromophenyl)-N-(quinolin-8-yl)azetidine-2-carboxamide] | 89% | 88.5% | 67% | 73% | 28.5% | 3% | 67.63% |
| C=CC(=O)N1C[C@H](c2ccc(Br)cc2)[C@H]1C(=O)Nc1cccc2cccnc12 [MY-3A, (2S,3S)-1-acryloyl-3-(4-bromophenyl)-N-(quinolin-8-yl)azetidine-2-carboxamide] | 73.5% | 14.5% | 11.5% | −13% | 5.5% | 11.5% | – |

Continued, values first:

| % engagement CYP27B1_C163 [1] | % engagement NUDT16L1_C88 [2] | % engagement HARS2_C175 [3] | % engagement FABP5_C127 [4] | % engagement ANKRD46_C61 [5] | % engagement HIRA_C673 [6] | % engagement NUDT16L1_88 [2] | Compound |
| --- | --- | --- | --- | --- | --- | --- | --- |
| 100% | 87.5% | 44.5% | −60.5% | 66.5% | 73% | – | C=CC(=O)N1C[C@H](c2ccc(Br)cc2)[C@H]1C(=O)Nc1cccc2cccnc12 [MY-3B, (2S,3S)-1-acryloyl-3-(4-bromophenyl)-N-(quinolin-8-yl)azetidine-2-carboxamide] |
| – | – | – | – | – | – | 9.38% | CC#CC(=O)N1C[C@H](c2ccc(Br)cc2)[C@@H]1C(=O)Nc1cccc2cccnc12 [MY-45B, (2R,3S)-3-(4-bromophenyl)-1-(but-2-ynoyl)-N-(quinolin-8-yl)azetidine-2-carboxamide] |
